In brackets after ≈: the same amount, converted by molar mass. Where two headings read alike, the source gives them in different places.
Assays:
E. coli CSH(RE45) = assay: microbe, parasite or virus in culture; type: cell-based; conditions: Escherichia coli, 16 h, read-out: Minimum Inhibitory Concentration (MIC), *E. coli CSH(RE45), lactamase-producing strain; 10^6 CFU/ml
Summary of the method: (§1)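 MICs (μg/ml) were read after 16 hours at 37°C. Test strains, grown overnight in Mueller Hinton broth, were spotted at 10^6 CFU/ml onto Mueller Hinton agar plates containing the compounds at a range of concentrations.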

E. coli CSH2 (RK1) = assay: microbe, parasite or virus in culture; type: cell-based; conditions: Escherichia coli, 16 h, read-out: Minimum Inhibitory Concentration (MIC), *E. coli CSH2 (RK1), lactamase-producing strain; 10^6 CFU/ml
Summary of the method: as §1

E. cloacae 963 = assay: in vitro antibacterial activity, agar plate dilution method (MIC); type: cell-based; conditions: 10^6 CFU/ml
Summary of the method: as §1

E. cloacae Nek 39 = assay: as above; type: cell-based; conditions: Enterobacter cloacae, NEK39, 16 h, read-out: Minimum Inhibitory Concentration (MIC), *E. cloacae Nek 39, lactamase-producing strain; 10^6 CFU/ml
Summary of the method: as §1

E. coli GN5482 = assay: as above; type: cell-based; conditions: Escherichia coli, GN5482, 16 h, read-out: Minimum Inhibitory Concentration (MIC)
Summary of the method: as §1

E. coli NIHJ JC2 = assay: as above; type: cell-based; conditions: Escherichia coli, NIHJJC2, 16 h, read-out: Minimum Inhibitory Concentration (MIC), E. coli NIHJ JC2, 10^6 CFU/ml, 37° C.
Summary of the method: as §1

K. oxytoca GN10650 = assay: as above; type: cell-based; conditions: Klebsiella oxytoca, GN10650, 16 h, read-out: Minimum Inhibitory Concentration (MIC), *K. oxytoca GN10650, lactamase-producing strain; 10^6 CFU/ml
Summary of the method: as §1

K. pneumoniae No. 42 = assay: as above; type: cell-based; conditions: Klebsiella pneumoniae, NO.42, 16 h, read-out: Minimum Inhibitory Concentration (MIC), *K. pneumoniae No. 42, lactamase-producing strain; 10^6 CFU/ml
Summary of the method: as §1

K. pneumoniae PCI-602 = assay: as above; type: cell-based; conditions: Klebsiella pneumoniae, PCI602, 16 h, read-out: Minimum Inhibitory Concentration (MIC), K. pneumoniae PCI-602; 10^6 CFU/ml
Summary of the method: as §1

M. morganii GN5407 = assay: as above; type: cell-based; conditions: Morganella morganii, GN5407, 16 h, read-out: Minimum Inhibitory Concentration (MIC), *M. morganii GN5407, lactamase-producing strain; 10^6 CFU/ml
Summary of the method: as §1

P. vulgaris HX-19 = assay: as above; type: cell-based; conditions: Proteus vulgaris, HX19, 16 h, read-out: Minimum Inhibitory Concentration (MIC)
Summary of the method: as §1

P. vulgaris No. 33 = assay: as above; type: cell-based; conditions: Proteus vulgaris, 10^6 CFU/ml
Summary of the method: as §1

S. aureus 209P NIHJ-JC1 = assay: as above; type: cell-based; conditions: Staphylococcus aureus, 16 h, read-out: Minimum Inhibitory Concentration (MIC)
Summary of the method: as §1

S. marcescens IAM 1184 = assay: as above; type: cell-based; conditions: Serratia marcescens, IAM1184, 16 h, read-out: Minimum Inhibitory Concentration (MIC)
Summary of the method: as §1

S. marcescens No. 16-2 = assay: as above; type: cell-based; conditions: Serratia marcescens, NO.162, 16 h
Summary of the method: as §1

Ps. aeruginosa AK 109 = assay: as above; type: cell-based, Pseudomonas aeruginosa; conditions: Pseudomonas aeruginosa, AK109, 16 h
Summary of the method: as §1

Ps. aeruginosa AKR17 = assay: as above; type: cell-based, Pseudomonas aeruginosa; conditions: Pseudomonas aeruginosa, 10^6 CFU/ml
Summary of the method: as §1

Ps. aeruginosa IF03445 = assay: as above; type: cell-based, Pseudomonas aeruginosa; conditions: Pseudomonas aeruginosa, IF03445, 16 h, read-out: Minimum Inhibitory Concentration (MIC), Ps. aeruginosa IF03445; 10^6 CFU/ml
Summary of the method: as §1

Ps. cepacia 23 = assay: as above; type: cell-based, Pseudomonas cepacia; conditions: Burkholderia cepacia, 16 h; Ps. cepacia 23; 10^6 CFU/ml; read-out: Minimum Inhibitory Concentration (MIC)
Summary of the method: as §1

A. calcoaceticus No. 4 = assay: as above; type: cell-based, Acinetobacter calcoaceticus; conditions: Acinetobacter calcoaceticus, NO.4, 16 h, read-out: Minimum Inhibitory Concentration (MIC), A. calcoaceticus No. 4; 10^6 CFU/ml
Summary of the method: as §1

[1] = concentration in blood of mice after subcutaneous administration; type: in vivo, mice (ddY type, male); conditions: mouse, sc, 20 mg/kg; for concentration at 0.125 h: 7.5 min; for concentration at 0.25 h: 15 min; for concentration at 0.5 h: 30 min; for concentration at 1 h: 60 min; for concentration at 2 h: 120 min
[2] = Enterobacter cloacae, 963, 16 h, read-out: Minimum Inhibitory Concentration (MIC), E. cloacae 963
[3] = S. marcescens IAM 1184, 10^6 CFU/ml
[4] = read-out: Minimum Inhibitory Concentration (MIC), *S. marcescens No. 16-2, lactamase-producing strain, 10^6 CFU/ml
[5] = read-out: Minimum Inhibitory Concentration (MIC)
[6] = NO.33, 16 h, read-out: Minimum Inhibitory Concentration (MIC), *P. vulgaris No. 33, lactamase-producing strain
[7] = Enterobacter cloacae, 16 h, E. cloacae 963, read-out: Minimum Inhibitory Concentration (MIC)
[8] = 16 h, Ps. aeruginosa AKR17, read-out: Minimum Inhibitory Concentration (MIC)

SMILES: CC(C)(ON=C(C(=O)NC1C(=O)N2C(C(=O)O)=C(CSc3nc(C(=O)O)c(-c4ccc(O)c(O)c4)s3)CSC12)c1csc(N)n1)C(=O)O (stereo not drawn) [Ex. 50, trisodium 7β-[2-(2-aminothizaol-4-yl)-2-(1-carboxylate-1-methylethoxyimino)acetamido]-3-[4-carboxylate-5-(3,4-dihydroxyphenyl)thiazol-2-yl]-thiomethyl-3-cephem-4-carboxylate]
- MIC (E. coli CSH(RE45)): 0.0125 mg/L
- MIC (E. coli CSH2 (RK1)): < 0.006 mg/L
- MIC (E. cloacae 963; [2]): 0.0125 mg/L
- MIC (E. cloacae Nek 39): 0.025 mg/L
- MIC (E. coli GN5482): 0.39 mg/L
- MIC (E. coli NIHJ JC2): 0.39 mg/L
- MIC (K. oxytoca GN10650): 0.025 mg/L
- MIC (K. pneumoniae No. 42): 0.05 mg/L
- MIC (K. pneumoniae PCI-602): < 0.006 mg/L
- MIC (M. morganii GN5407): 0.025 mg/L
- MIC (P. vulgaris HX-19; P. vulgaris HX-19, 10^6 CFU/ml): < 0.006 mg/L
- MIC (P. vulgaris No. 33; 16 h, *P. vulgaris No. 33, lactamase-producing strain, read-out: Minimum Inhibitory Concentration (MIC)): < 0.006 mg/L
- MIC (S. aureus 209P NIHJ-JC1; S. aureus 209P NIHJ-JC1, 10^6 CFU/ml, 37° C., 16 hours): 50 mg/L
- MIC (S. marcescens IAM 1184; [3]): 0.025 mg/L
- MIC (S. marcescens No. 16-2; [4]): 0.78 mg/L
- MIC (Ps. aeruginosa AK 109; [5]): 0.39 mg/L
- MIC (Ps. aeruginosa AKR17; AKR17, 16 h, read-out: Minimum Inhibitory Concentration (MIC), Ps. aeruginosa AKR17): 1.56 mg/L
- MIC (Ps. aeruginosa IF03445): 0.39 mg/L
- MIC (Ps. cepacia 23): < 0.006 mg/L
- MIC (A. calcoaceticus No. 4): 0.1 mg/L
- concentration at 0.125 h [1]: 60.5 µg/mL
- concentration at 0.25 h [1]: 67 µg/mL
- concentration at 0.5 h [1]: 52.3 µg/mL
- concentration at 1 h [1]: 18.5 µg/mL
- concentration at 2 h [1]: 3.1 µg/mL
- concentration at 4 h ([1]; 240 min): 0.22 µg/mL

SMILES: CC(C)(O/N=C(\C(=O)N[C@@H]1C(=O)N2C(C(=O)[O-])=C(C[n+]3ccccc3)CS[C@H]12)c1csc(N)n1)C(=O)O [ceftazidime, reference compound]
- MIC (E. cloacae 963; [2]): 0.1 mg/L (≈ 0.183 µM)
- MIC (E. cloacae Nek 39): 1.56 mg/L (≈ 2.85 µM)
- MIC (E. coli GN5482): 1.56 mg/L (≈ 2.85 µM)
- MIC (E. coli NIHJ JC2): 0.1 mg/L (≈ 0.183 µM)
- MIC (K. oxytoca GN10650): 0.1 mg/L (≈ 0.183 µM)
- MIC (K. pneumoniae No. 42): 0.39 mg/L (≈ 0.714 µM)
- MIC (K. pneumoniae PCI-602): 0.025 mg/L (≈ 0.0457 µM)
- MIC (M. morganii GN5407): 0.1 mg/L (≈ 0.183 µM)
- MIC (P. vulgaris HX-19): 0.025 mg/L (≈ 0.0457 µM)
- MIC (P. vulgaris No. 33; [6]): 0.05 mg/L (≈ 0.0915 µM)
- MIC (S. aureus 209P NIHJ-JC1): 6.25 mg/L (≈ 11.4 µM)
- MIC (S. marcescens IAM 1184): < 0.006 mg/L
- MIC (S. marcescens No. 16-2; [5]): 1.56 mg/L (≈ 2.85 µM)
- MIC (Ps. aeruginosa AK 109; [5]): 0.78 mg/L (≈ 1.43 µM)
- MIC (Ps. aeruginosa IF03445): 1.56 mg/L (≈ 2.85 µM)
- MIC (A. calcoaceticus No. 4): 6.25 mg/L (≈ 11.4 µM)
- concentration at 0.125 h [1]: 25.4 µg/mL
- concentration at 0.25 h [1]: 24.1 µg/mL
- concentration at 0.5 h [1]: 17.3 µg/mL
- concentration at 1 h [1]: 3.3 µg/mL
- concentration at 2 h [1]: 0.2 µg/mL

SMILES: CCON=C(C(=O)NC1C(=O)N2C(C(=O)O)=C(CSc3nc(C(=O)O)c(-c4ccc(O)c(O)c4)s3)CSC12)c1csc(N)n1 (stereo not drawn) [compound 53, disodium 7β-[2-(2-aminothiazol-4-yl)-2-ethoxyiminoacetamido]-3-[4-carboxylate-5-(3,4-dihydroxyphenyl)thiazol-2-yl]thiomethyl-3-cephem-4-carboxylate]
- MIC (E. coli CSH(RE45)): 0.025 mg/L
- MIC (E. coli CSH2 (RK1)): 0.0125 mg/L
- MIC (E. cloacae 963; [7]): 0.1 mg/L
- MIC (E. cloacae Nek 39): 0.39 mg/L
- MIC (E. coli GN5482): 3.12 mg/L
- MIC (E. coli NIHJ JC2): 0.78 mg/L
- MIC (K. oxytoca GN10650): 3.12 mg/L
- MIC (K. pneumoniae No. 42): 0.1 mg/L
- MIC (K. pneumoniae PCI-602): < 0.006 mg/L
- MIC (M. morganii GN5407): 0.05 mg/L
- MIC (P. vulgaris HX-19): 0.0125 mg/L
- MIC (P. vulgaris No. 33; [6]): 0.025 mg/L
- MIC (S. aureus 209P NIHJ-JC1): 12.5 mg/L
- MIC (S. marcescens IAM 1184; [3]): 0.05 mg/L
- MIC (S. marcescens No. 16-2; [4]): 6.25 mg/L
- MIC (Ps. aeruginosa AK 109; [5]): 3.12 mg/L
- MIC (Ps. aeruginosa AKR17; [8]): 50 mg/L
- MIC (Ps. aeruginosa IF03445): 3.12 mg/L
- MIC (Ps. cepacia 23): 0.025 mg/L
- MIC (A. calcoaceticus No. 4): 0.39 mg/L

SMILES: CCO/N=C(\C(=O)N[C@@H]1C(=O)N2C(C(=O)O)=C(CSc3ncc(-c4ccc(OC(C)=O)c(OC(C)=O)c4)o3)CS[C@H]12)c1csc(N)n1 [compound 67, disodium 3-[5-(3,4-diacetoxyphenyl)-oxazol-2-yl]thiomethyl-7β-[2-(2-aminothiazol-4)-2-ethoxyiminoacetamido]-3-cephem-4-carboxylate]
- MIC (E. coli CSH(RE45)): 0.1 mg/L
- MIC (E. coli CSH2 (RK1)): 0.0125 mg/L
- MIC (E. cloacae 963; [7]): 0.1 mg/L
- MIC (E. cloacae Nek 39): 0.39 mg/L
- MIC (E. coli GN5482): 3.12 mg/L
- MIC (E. coli NIHJ JC2): 0.39 mg/L
- MIC (K. oxytoca GN10650): 1.56 mg/L
- MIC (K. pneumoniae No. 42): 0.1 mg/L
- MIC (K. pneumoniae PCI-602): < 0.006 mg/L
- MIC (M. morganii GN5407): 0.05 mg/L
- MIC (P. vulgaris HX-19): 0.0125 mg/L
- MIC (P. vulgaris No. 33; [6]): 0.025 mg/L
- MIC (S. aureus 209P NIHJ-JC1): 3.12 mg/L
- MIC (S. marcescens IAM 1184; [3]): 0.1 mg/L
- MIC (S. marcescens No. 16-2; [4]): 6.25 mg/L
- MIC (Ps. aeruginosa AK 109; read-out: Minimum Inhibitory Concentration (MIC), Ps. aeruginosa AK 109, 10^6 CFU/ml): 1.56 mg/L
- MIC (Ps. aeruginosa AKR17; [8]): 50 mg/L
- MIC (Ps. aeruginosa IF03445): 1.56 mg/L
- MIC (Ps. cepacia 23): 0.05 mg/L
- MIC (A. calcoaceticus No. 4): 0.39 mg/L

From patent US5061794A, “Cephalosporin derivatives, and antibacterial agents” (priority 1986, dated 1991)
